What was measured:
[1] = system: Zymoseptoria tritici strain Zt StA; experiment: In planta preventive efficacy on wheat cv. Alixan against Zymoseptoria tritici strain Zt StA (control strain, sensitive); assay type: in vivo; conditions: for Disease Severity Intensity: % of length of 2nd leaf blade, preventive 24 h; for AUDPC: control 781.6
Procedure, shortened: (§1)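 BBCH 12 wheat plants sprayed preventively, inoculated 24 h later with calibrated pycnospore suspension; 3 pots of 6 plants per condition, 20/17 °C, 16 h light. Necrosis length on second leaf scored at 15, 21 and 28 dpi; efficacy from trapezoidal AUDPC as % of untreated control.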

[2] = system: Zymoseptoria tritici strain Zt 61; experiment: In planta preventive efficacy on wheat cv. Alixan against Zymoseptoria tritici strain Zt 61; assay type: in vivo; conditions: for Disease Severity Intensity: % of length of 2nd leaf blade, preventive 24 h; for AUDPC: control 1194.9
Procedure, shortened: as §1

[3] = system: Zymoseptoria tritici strain Zt 99; experiment: In planta preventive efficacy on wheat cv. Alixan against Zymoseptoria tritici strain Zt 99; assay type: in vivo; conditions: for Disease Severity Intensity: % of length of 2nd leaf blade, preventive 24 h; for AUDPC: control 1352.9
Procedure, shortened: as §1

[4] = system: Zymoseptoria tritici strain Zt 19-52; experiment: In planta preventive efficacy on wheat cv. Alixan against Zymoseptoria tritici strain Zt 19-52; assay type: in vivo; conditions: % of length of 2nd leaf blade, preventive 24 h
[5] = system: Zymoseptoria tritici strain Zt 20; experiment: In planta preventive efficacy on wheat cv. Alixan against Zymoseptoria tritici strain Zt 20; assay type: in vivo; conditions: % of length of 2nd leaf blade, preventive 24 h
Procedure, shortened: as §1

[6] = system: Zymoseptoria tritici strain Zt 38-02; experiment: In planta preventive efficacy on wheat cv. Alixan against Zymoseptoria tritici strain Zt 38-02; assay type: in vivo; conditions: for Disease Severity Intensity: % of length of 2nd leaf blade, preventive 24 h; for AUDPC: control 1261.4
Procedure, shortened: as §1

Z. tritici strains = experiment: In planta susceptibility of all Z. tritici strains pathogenic on wheat cv. ALIXAN (conclusions); assay type: in vivo, Zymoseptoria tritici
Procedure: Winter wheat plants cv. Alixan (Limagrain) at the BBCH 12 growth stage were treated preventively with sterile distilled water (control), ADF-16, penthiopyrad, metconazole or tebuconazole at the rates described in Table 2 with a hand sprayer at 2 bars.
After treatment, wheat plants were left to dry at room temperature for 1 hour and then placed in a climatic chamber: temperature of 24 °C day/18 °C night-photoperiod of 16 h light/8 h dark and a relative humidity of 65%.
Untreated or treated whole wheat plants were inoculated 24-hours post-treatment with a calibrated pycnospore suspension of Z. tritici strains Zt StA, Zt 61, Zt 99, Zt 20, Zt 19-52, and Zt 38-02. Three replicates (pots) of 6 wheat plants each were used for each condition tested. […]
Disease assessments were carried out at 15 days post inoculation (dpi), 21 dpi and 28 dpi by measuring the length of the necrosis on the second leaf blade. The intensity of infection was then determined as a percentage of the total length of 2nd leaf blade.
The fungicide efficacies were determined from the Area Under the Disease Progress Curve (AUDPC) values and expressed as a percentage of the untreated control.
The AUDPC is a quantitative measure of disease intensity over time. […] The AUDPC is determined with the following formula by adding all of the trapezoids: […]

[7] = 15 dpi, rate N (g a.i./ha): ADF-16 100, penthiopyrad 200, metconazole 90, tebuconazole 250, control also no disease
[8] = 15 dpi, rate N/2.5 (g a.i./ha): ADF-16 40, penthiopyrad 80, metconazole 36, tebuconazole 100, control also no disease
[9] = rate N (g a.i./ha): ADF-16 100, penthiopyrad 200, metconazole 90, tebuconazole 250
[10] = rate N/2.5 (g a.i./ha): ADF-16 40, penthiopyrad 80, metconazole 36, tebuconazole 100

## Cc1ccc(S(=O)(=O)n2cc(F)c(=N)n(C)c2=O)cc1 [ADF-16, 5-fluoro-4-imino-3-methyl-1-tosyl-3,4-dihydropyrimidin-2 (1H)-one]
[1]; [7]
  Disease Severity Intensity: No disease
[1]; [8]
  Disease Severity Intensity: No disease
[1]; 21 dpi, rate N (g a.i./ha): ADF-16 100, penthiopyrad 200, metconazole 90, tebuconazole 250, control 36.5
  Disease Severity Intensity: 0.0 +/− 0.0b %
[1]; 21 dpi, rate N/2.5 (g a.i./ha): ADF-16 40, penthiopyrad 80, metconazole 36, tebuconazole 100, control 36.5
  Disease Severity Intensity: 0.0 +/− 0.0b %
[1]; 28 dpi, rate N (g a.i./ha): ADF-16 100, penthiopyrad 200, metconazole 90, tebuconazole 250, control 77.4
  Disease Severity Intensity: 0.0 +/− 0.0b %
[1]; 28 dpi, rate N/2.5 (g a.i./ha): ADF-16 40, penthiopyrad 80, metconazole 36, tebuconazole 100, control 77.4
  Disease Severity Intensity: 0.0 +/− 0.0b %
[1]; [9]
  Efficacy (from AUDPC, percentage of the untreated control): 100%
  AUDPC: 0.0 +/− 0.0b
[1]; [10]
  Efficacy (from AUDPC, percentage of the untreated control): 100%
  AUDPC: 0.0 +/− 0.0b
[2]; [7]
  Disease Severity Intensity: No disease
[2]; [8]
  Disease Severity Intensity: No disease
[2]; 21 dpi, rate N (g a.i./ha): ADF-16 100, penthiopyrad 200, metconazole 90, tebuconazole 250, control 63.3
  Disease Severity Intensity: 0.0 +/− 0.0d %
[2]; 21 dpi, rate N/2.5 (g a.i./ha): ADF-16 40, penthiopyrad 80, metconazole 36, tebuconazole 100, control 63.3
  Disease Severity Intensity: 3.2 +/− 1.1d %
[2]; 28 dpi, rate N (g a.i./ha): ADF-16 100, penthiopyrad 200, metconazole 90, tebuconazole 250, control 88.1
  Disease Severity Intensity: 1.5 +/− 0.3g %
[2]; 28 dpi, rate N/2.5 (g a.i./ha): ADF-16 40, penthiopyrad 80, metconazole 36, tebuconazole 100, control 88.1
  Disease Severity Intensity: 14.8 +/− 4.0e %
[2]; [9]
  Efficacy (from AUDPC, percentage of the untreated control): 99.6%
  AUDPC: 5.4 ± 1.2 days
[2]; [10]
  Efficacy (from AUDPC, percentage of the untreated control): 91.9%
  AUDPC: 97.2 ± 5.0 days
[3]; 15 dpi, rate N (g a.i./ha): ADF-16 100, penthiopyrad 200, metconazole 90, tebuconazole 250, control 47.9
  Disease Severity Intensity: 0.0 +/− 0.0d %
[3]; 15 dpi, rate N/2.5 (g a.i./ha): ADF-16 40, penthiopyrad 80, metconazole 36, tebuconazole 100, control 47.9
  Disease Severity Intensity: 0.0 +/− 0.0d %
[3]; 21 dpi, rate N (g a.i./ha): ADF-16 100, penthiopyrad 200, metconazole 90, tebuconazole 250, control 81.0
  Disease Severity Intensity: 0.1 +/− 0.1f %
[3]; 21 dpi, rate N/2.5 (g a.i./ha): ADF-16 40, penthiopyrad 80, metconazole 36, tebuconazole 100, control 81.0
  Disease Severity Intensity: 0.0 +/− 0.0f %
[3]; 28 dpi, rate N (g a.i./ha): ADF-16 100, penthiopyrad 200, metconazole 90, tebuconazole 250, control 92.2
  Disease Severity Intensity: 0.1 +/− 0.1e %
[3]; 28 dpi, rate N/2.5 (g a.i./ha): ADF-16 40, penthiopyrad 80, metconazole 36, tebuconazole 100, control 92.2
  Disease Severity Intensity: 1.7 +/− 0.8e %
[3]; [9]
  Efficacy (from AUDPC, percentage of the untreated control): 99.9%
  AUDPC: 1.2 ± 0.3 g
[3]; [10]
  Efficacy (from AUDPC, percentage of the untreated control): 99.6%
  AUDPC: 5.9 ± 0.4 g
[4]; 15 dpi, rate N (g a.i./ha): ADF-16 100, penthiopyrad 200, metconazole 90, tebuconazole 250, control 22.0
  Disease Severity Intensity: 0.0 +/− 0.0b %
[4]; 15 dpi, rate N/2.5 (g a.i./ha): ADF-16 40, penthiopyrad 80, metconazole 36, tebuconazole 100, control 22.0
  Disease Severity Intensity: 0.0 +/− 0.0b %
[4]; 21 dpi, rate N (g a.i./ha): ADF-16 100, penthiopyrad 200, metconazole 90, tebuconazole 250, control 81.7
  Disease Severity Intensity: 0.4 +/− 0.4c %
[4]; 21 dpi, rate N/2.5 (g a.i./ha): ADF-16 40, penthiopyrad 80, metconazole 36, tebuconazole 100, control 81.7
  Disease Severity Intensity: 0.3 +/− 0.2c %
[4]; 28 dpi, rate N (g a.i./ha): ADF-16 100, penthiopyrad 200, metconazole 90, tebuconazole 250, control 91.0
  Disease Severity Intensity: 2.0 +/− 1.4ef %
[4]; 28 dpi, rate N/2.5 (g a.i./ha): ADF-16 40, penthiopyrad 80, metconazole 36, tebuconazole 100, control 91.0
  Disease Severity Intensity: 4.4 +/− 1.7de %
[5]; [7]
  Disease Severity Intensity: No disease
[5]; [8]
  Disease Severity Intensity: No disease
[5]; 21 dpi, rate N (g a.i./ha): ADF-16 100, penthiopyrad 200, metconazole 90, tebuconazole 250, control 77.2
  Disease Severity Intensity: 0.0 +/− 0.0e %
[5]; 21 dpi, rate N/2.5 (g a.i./ha): ADF-16 40, penthiopyrad 80, metconazole 36, tebuconazole 100, control 77.2
  Disease Severity Intensity: 0.0 +/− 0.0e %
[5]; 28 dpi, rate N (g a.i./ha): ADF-16 100, penthiopyrad 200, metconazole 90, tebuconazole 250, control 95.5
  Disease Severity Intensity: 0.0 +/− 0.0g %
[5]; 28 dpi, rate N/2.5 (g a.i./ha): ADF-16 40, penthiopyrad 80, metconazole 36, tebuconazole 100, control 95.5
  Disease Severity Intensity: 7.3 +/− 1.9f %
[6]; 15 dpi, rate N (g a.i./ha): ADF-16 100, penthiopyrad 200, metconazole 90, tebuconazole 250, control 36.0
  Disease Severity Intensity: 0.0 +/− 0.0b %
[6]; 15 dpi, rate N/2.5 (g a.i./ha): ADF-16 40, penthiopyrad 80, metconazole 36, tebuconazole 100, control 36.0
  Disease Severity Intensity: 0.0 +/− 0.0b %
[6]; 21 dpi, rate N (g a.i./ha): ADF-16 100, penthiopyrad 200, metconazole 90, tebuconazole 250, control 84.3
  Disease Severity Intensity: 0.0 +/− 0.0f^ %
[6]; 21 dpi, rate N/2.5 (g a.i./ha): ADF-16 40, penthiopyrad 80, metconazole 36, tebuconazole 100, control 84.3
  Disease Severity Intensity: 0.0 +/− 0.0f^ %
[6]; 28 dpi, rate N (g a.i./ha): ADF-16 100, penthiopyrad 200, metconazole 90, tebuconazole 250, control 95.7
  Disease Severity Intensity: 0.4 +/− 0.4e %
[6]; 28 dpi, rate N/2.5 (g a.i./ha): ADF-16 40, penthiopyrad 80, metconazole 36, tebuconazole 100, control 95.7
  Disease Severity Intensity: 0.0 +/− 0.0e %
[6]; [9]
  Efficacy (from AUDPC, percentage of the untreated control): 99.9%
  AUDPC: 1.3 +/− 0.9e
[6]; [10]
  Efficacy (from AUDPC, percentage of the untreated control): 100%
  AUDPC: 0.0 +/− 0.0e
Z. tritici strains; 8 strains pathogenic on wheat cv. ALIXAN, 2 doses tested (40 and 100 g a.i./ha)
  control in planta of Z. tritici strains: perfectly controlled
Z. tritici strains; full dose of 100 g a.i./ha, across strains
  effectiveness: more than 99%
